Source: patent US20250171435A1, “Carbon Linked BCL Inhibitors and Senolytic Compounds and Uses Thereof” (Rubedo Life Sciences, Inc., priority 2023, published 2025)
Like-named read-outs stand apart in the source and are kept apart here.

How the values were obtained:
senescent A549 cells = experiment: Senescence assay: viability of senescent A549 cells (CellTiter-Glo or XTT); assay type: cell-based; conditions: chemotherapy-induced senescent A549 cells, compounds incubated 24-72 hours, viability relative to untreated control, read-out: A549_SEN IC50 (Absolute IC50 average)
Method: (§1) Cells were maintained in DMEM media (high glucose, 4 mM L-glutamine, no sodium pyruvate) supplemented with 10% fetal bovine serum in a humidified incubator at 37° C. with 5% carbon dioxide. Senescence was induced via treatment with a sublethal concentration of chemotherapy (bleomycin, gemcitabine, doxorubicin, 5-fluorouridine, mitomycin C), followed by a rest period without chemotherapy similarly to what is reported by others in the field (e.g., Aoshiba et al., 2003 Eur Respir J 22:436-443). Senescence was qualified by low EdU (5-ethynyl-2′-deoxyuridine) incorporation and high SA-β-Gal (senescence-associated beta-galactosidase) staining compared to proliferating untreated cells. Senescent cells were plated into 96-well plates at a density of 5-15,000 cells/well. The next day, compounds were added in duplicate across ten different concentrations spanning roughly four Log 10 units. Cells were incubated with the compounds for 24-72 hours, at which point viability was quantified using CellTiter-Glo (Promega) or XTT (R&D Systems). The viability for treated cells was determined relative to untreated control cells. The log of the compound concentration vs. normalized mean viability was fit to a four parameters Hill function with variable slope. The bottom was constrained to be greater than zero. The X mean value for Y=50 was interpolated to determine the absolute IC50. The results in Table 1 indicate that many of the compounds are active in cells and can induce a dose dependent decrease in the viability of senescent A549 and IMR90 cells.

senescent IMR90 cells = experiment: Senescence assay: viability of senescent IMR90 cells (CellTiter-Glo or XTT); assay type: cell-based; conditions: Homo sapiens, IMR-90; chemotherapy-induced senescent IMR90 cells; compounds incubated 24-72 hours; viability relative to untreated control; read-out: IMR90_SEN IC50 (Absolute IC50 average)
Method: as §1

SMILES	IC50 (senescent A549 cells)	IC50 (senescent A549 cells; Homo sapiens)	IC50 (senescent IMR90 cells)
Cc1cc(C(=O)c2ccc(-c3cnn(CC45CC6(OCCN7CCOCC7)C[C@](C)(C4)C[C@](C)(C5)C6)c3C)c(C(=O)NS(=O)(=O)CCCCCC(=O)N[C@H](C(=O)N3C[C@H](O)C[C@H]3C(=O)N[C@@H](C)c3ccc(-c4scnc4C)cc3)C(C)(C)C)n2)nnc1Nc1nc2ccccc2s1 [Compound 4, (2S,4R)-1-[(2S)-2-[6-({6-[6-(1,3-benzothiazol-2-ylamino)-5-methylpyridazine-3-carbonyl]-3-(1-{[(1S,3R,5S,7R)-3,5-dimethyl-7-[2-(morpholin-4-yl)ethoxy]adamantan-1-yl]methyl}-5-methylpyrazol-4-yl)pyridin-2-yl}formamidosulfonyl)hexanamido]-3,3-dimethylbutanoyl]-4-hydroxy-N-[(1S)-1-[4-(4-methyl-1,3-thiazol-5-yl)phenyl]ethyl]pyrrolidine-2-carboxamide]	100 to 1000 nM	–	–
Cc1cc(C(=O)c2nc(C(=O)O)c(CCCOc3ccc(C#CCN(C)C)cc3F)s2)nnc1Nc1nc2ccccc2s1 [Compound 3, 2-(6-(benzo[d]thiazol-2-ylamino)-5-methylpyridazine-3-carbonyl)-5-(3-(4-(3-(dimethylamino)prop-1-yn-1-yl)-2-fluorophenoxy)propyl) thiazole-4-carboxylic acid]	–	100 to 1000 nM	1000 to 10000 nM
Cc1cc(C(=O)c2ccc(-c3cnn(CC45CC6(OCCN7CCOCC7)C[C@](C)(C4)C[C@](C)(C5)C6)c3C)c(C(=O)NS(=O)(=O)CCCCCC(=O)N[C@H](C(=O)N3C[C@@H](O)C[C@H]3C(=O)N[C@@H](C)c3ccc(-c4scnc4C)cc3)C(C)(C)C)n2)nnc1Nc1nc2ccccc2s1 [Compound 5, (2S,4S)-1-[(2S)-2-[6-({6-[6-(1,3-benzothiazol-2-ylamino)-5-methylpyridazine-3-carbonyl]-3-(1-{[(1S,3R,5S,7R)-3,5-dimethyl-7-[2-(morpholin-4-yl)ethoxy]adamantan-1-yl]methyl}-5-methylpyrazol-4-yl)pyridin-2-yl}formamidosulfonyl)hexanamido]-3,3-dimethylbutanoyl]-4-hydroxy-N-[(1S)-1-[4-(4-methyl-1,3-thiazol-5-yl)phenyl]ethyl]pyrrolidine-2-carboxamide]	100 to 1000 nM	–	–
Cc1cc(C(=O)c2ccc(-c3cnn(CC45CC6(C)CC(C)(C4)CC(OCCO)(C6)C5)c3C)c(C(=O)O)n2)nnc1Nc1nc2ccccc2s1 [Compound 1, 6-(6-(benzo[d]thiazol-2-ylamino)-5-methylpyridazine-3-carbonyl)-3-(1-(((1r,3s,5R,7S)-3-(2-hydroxyethoxy)-5,7-dimethyladamantan-1-yl)methyl)-5-methyl-1H-pyrazol-4-yl)picolinic acid]	–	1000 to 10000 nM	100 to 1000 nM
Cc1cc(C(=O)c2ccc(-c3cnn(CC45CC6(C)CC(C)(C4)CC(OCCN4CCOCC4)(C6)C5)c3C)c(C(=O)O)n2)nnc1Nc1nc2ccccc2s1 [Compound 2, 6-(6-(benzo[d]thiazol-2-ylamino)-5-methylpyridazine-3-carbonyl)-3-(1-(((1r,3R,5S,7s)-3,5-dimethyl-7-(2-morpholinoethoxy)adamantan-1-yl)methyl)-5-methyl-1H-pyrazol-4-yl)picolinic acid]	–	10 to 100 nM	10 to 100 nM
C#Cc1ccc(CNC(=O)[C@@H]2C[C@H](O)CN2C(=O)[C@@H](NC(=O)CCCCCS(=O)(=O)NC(=O)c2nc(C(=O)c3cc(C)c(Nc4nc5ccccc5s4)nn3)ccc2-c2cnn(CC34CC5(C)CC(C)(C3)CC(OCCN3CCOCC3)(C5)C4)c2C)C(C)(C)C)cc1 [Compound 6, (2S,4R)-1-[(2S)-2-[6-({6-[6-(1,3-benzothiazol-2-ylamino)-5-methylpyridazine-3-carbonyl]-3-(1-{[(1S,3R,5S,7R)-3,5-dimethyl-7-[2-(morpholin-4-yl)ethoxy]adamantan-1-yl]methyl}-5-methylpyrazol-4-yl)pyridin-2-yl}formamidosulfonyl)hexanamido]-3,3-dimethylbutanoyl]-N-[(4-ethynylphenyl)methyl]-4-hydroxypyrrolidine-2-carboxamide]	–	10 to 100 nM	–
Cc1cc(C(=O)c2ccc(-c3cnn(CC45CC6(C)CC(C)(C4)CC(OCCN4CCOCC4)(C6)C5)c3C)c(C(=O)NS(=O)(=O)c3ccc(N4CC(C(=O)N[C@H](C(=O)N5C[C@H](O)C[C@H]5C(=O)N[C@H](C)c5ccc(-c6scnc6C)cc5)C(C)(C)C)C4)cc3)n2)nnc1Nc1nc2ccccc2s1 [Compound 7, 6-[6-(1,3-benzothiazol-2-ylamino)-5-methylpyridazine-3-carbonyl]-3-(1-{[(1S,3R,5S,7R)-3,5-dimethyl-7-[2-(morpholin-4-yl)ethoxy]adamantan-1-yl]methyl}-5-methylpyrazol-4-yl)-N-[4-(3-{[(2S)-1-[(2S,4R)-4-hydroxy-2-{[(1S)-1-[4-(4-methyl-1,3-thiazol-5-yl)phenyl]ethyl]carbamoyl}pyrrolidin-1-yl]-3,3-dimethyl-1-oxobutan-2-yl]carbamoyl}azetidin-1-yl)benzenesulfonyl]pyridine-2-carboxamide]	–	100 to 1000 nM	–
